Assay results from US12065434B2, “Metabolites of GLP1R agonists” (Pfizer Inc., priority 2020, dated 2024).

Legend:
monkey hepatocytes = assay: In vitro metabolism of Compound 2 in monkey cryopreserved hepatocytes; assay type: in vitro ADME, cynomolgus monkey; set-up: key to Relative abundance of metabolite of Compound 2, Monkey: ND Not detected.; trace: Trace: observed by HPLC/MS measurements only.; + Minor as assessed by HPLC/UV measurements; ++ moderate as assessed by HPLC/UV measurements; +++ major as assessed by HPLC/UV measurements.; * m/z 593 and m/z 505 co-eluted in rabbit hepatocytes.; ** m/z 591 c and m/z 593 were merged in human hepatocytes and Hepatopack.; *** m/z 607 and m/z 751 b were merged in rabbit hepatocytes; settings: for metabolite of Compound 2 observed in monkey hepatocyte incubations: 10 μM Compound 2, 7.5×10^5 cells/mL, 1 and 4 hrs composite; for Relative abundance of metabolite of Compound 2, Monkey: monkey cryopreserved hepatocytes, HPLC/UV/MS
Procedure: (§1) Male CD-1 mouse hepatocytes (lot YHL), male Wistar-Han rat hepatocytes (Celsius; product number: M000065; lot: SLA), female New Zealand rabbit hepatocytes (lot 1510147), male cryopreserved cynomolgus monkey hepatocytes (Celsius; product number: M00305; lot: DNB) and mixed-gender cryopreserved human hepatocytes (Bioreclamation; product number: S01988; lot: DCM) were obtained for the hepatocyte in-vitro assessments.
(§2) At time 0 hrs 550 μL aliquots were removed from incubations and quenched with 5 volumes of ACN containing 0.1% formic acid. At 1 and 4 hrs, 275 μL aliquots were removed and quenched as above; these were combined in the same tube to prepare a composite sample. For all hepatocyte experiments, samples were processed by centrifugation at 1900×g for 5 minutes, and then the supernatant was transferred to clean glass tubes and evaporated to dryness under a stream of N2 using a Turbovap at 37° C. Sample residues were reconstituted in mobile phase prior to analysis by HPLC/UV/MS^n.
(§3) Samples were analyzed by HPLC/UV/MS^n using a Thermo Orbitrap Elite mass spectrometer in conjunction with a Thermo Open Accela UHPLC system. A 3.0×150 mm, 2.5 μm Acquity CSH C18 HPLC column (Waters) was heated to 45° C. for separation of analytes. The mobile phase was a gradient of A): water containing 0.1% formic acid, and B): acetonitrile. The flow rate was 450 μL/min, and the following gradient program was utilized: […]
(§4) UV absorbance was monitored with a photo-diode array detector from 220-450 nm. The mass spectrometer was operated in positive-ion mode with a HESI ion source at a potential of 3.0 kV, and capillary and source heater temperatures of 380 and 300° C., respectively. Sheath, auxiliary, and sweep gas flows were set to 45, 10, and 2 units, respectively. Full scan mass spectra were acquired over the range 120-1200 m/z at a resolving power of 30,000 (specified at m/z 400). Data-dependent MS^n spectra were acquired in an automated fashion at 15,000 resolving power using CID and HCD fragmentation with normalized collision energy settings of 28 and 65 V, respectively.
(§5) Metabolites were characterized by comparisons of mass spectral fragmentation patterns with that of a Compound 2 standard. All HPLC/UV/MS^n data were processed using Xcalibur v. 2.2, and integrated UV peak areas were subjected to weighted UV binning procedures utilizing an Excel template.

[1] = test system: human co-cultured hepatocytes (Hepatopack); assay: In vitro metabolism of Compound 2 in human micropatterned co-cultured hepatocytes (Hepatopack); assay type: in vitro ADME; set-up: key to Relative abundance of metabolite of Compound 2, Hepatopack: ND Not detected.; trace: Trace: observed by HPLC/MS measurements only.; + Minor as assessed by HPLC/UV measurements; ++ moderate as assessed by HPLC/UV measurements; +++ major as assessed by HPLC/UV measurements.; * m/z 593 and m/z 505 co-eluted in rabbit hepatocytes.; ** m/z 591 c and m/z 593 were merged in human hepatocytes and Hepatopack.; *** m/z 607 and m/z 751 b were merged in rabbit hepatocytes; settings: human co-cultured hepatocytes (Hepatopack); HPLC/UV/MS
Excerpt: Micro-patterned co-cultured (MPCC) hepatocyte 24-well plates containing human donors (16 wells each) were provided by Ascendance Biotechnology (formerly Hepregen Corp. (Medford, MA). [see Wang W W W, Khetani S R, Krzyzewski S, et al. Assessment of a Micropatterned Hepatocyte Coculture System to Generate Major Human Excretory and Circulating Drug Metabolites. Drug Metab Dispos 2010; 38(10):1900-5.] The MPCCs were created at Ascendance Biotechnology and maintained in serum containing medium for 5-6 days to allow for stabilization of the co-cultures prior to shipment. A mixed-gender cryopreserved pool of 10 human donors (X008001-P; lot YFA) was used to seed the plates and was purchased from BioreclamationIVT (Westbury, NY). MPCC hepatocytes are plated with fibroblasts in a 1:3 ratio with ˜25,000 hepatocytes/well in a 24-well plate. 24-Well MPCC plates were shipped to Pfizer, fresh medium (400 μL/well) was applied and cultures were kept at 37° C. with […] and 95% relative humidity for two days. Micropatterned co-cultures containing pooled hepatocytes were allowed 7 days to fully stabilize with respect to liver-specific functions. […] At respective time points (0, 2, and 7 days), the culture medium was removed and mixed with 4 volumes of ACN, then stored frozen at −40° C. until samples could be analyzed. Samples were subsequently processed by the addition of 2.5 mL of 1:1 ACN:MeOH containing 0.1% formic acid. After vortexing, the samples were centrifuged at 1900×g for 5 min, then the supernatant was transferred to 15 mL conical tubes and evaporated under N2 using a Turbovap set at 37° C. The residues were reconstituted in mobile phase (5:95 v:v ACN:0.1% aqueous formic acid) prior to analysis by HPLC/UV/MS^n.
as §3
UV absorbance was monitored with a photo-diode array detector from 220-450 nm. The mass spectrometer was operated in positive-ion mode with a HESI ion source at a potential of 3.0 kV, and capillary and source heater temperatures of 380 and 300° C., respectively. Sheath, auxiliary, and sweep gas flows were set to 45, 10, and 2 units, respectively. Full scan mass spectra were acquired over the range 120-1200 m/z at a resolving power of 30,000 (specified at m/z 400). […]

rabbit hepatocytes = assay: In vitro metabolism of Compound 2 in rabbit cryopreserved hepatocytes; assay type: in vitro ADME; set-up: key to Relative abundance of metabolite of Compound 2, Rabbit: ND Not detected.; trace: Trace: observed by HPLC/MS measurements only.; + Minor as assessed by HPLC/UV measurements; ++ moderate as assessed by HPLC/UV measurements; +++ major as assessed by HPLC/UV measurements.; * m/z 593 and m/z 505 co-eluted in rabbit hepatocytes.; ** m/z 591 c and m/z 593 were merged in human hepatocytes and Hepatopack.; *** m/z 607 and m/z 751 b were merged in rabbit hepatocytes; settings: for metabolite of Compound 2 observed in rabbit hepatocyte incubations: 10 μM Compound 2, 7.5×10^5 cells/mL, 1 and 4 hrs composite; for Relative abundance of metabolite of Compound 2, Rabbit: rabbit cryopreserved hepatocytes, HPLC/UV/MS
Procedure: as §1, §2, §3, §4, §5

rat hepatocytes = assay: In vitro metabolism of Compound 2 in rat cryopreserved hepatocytes; assay type: in vitro ADME; set-up: key to Relative abundance of metabolite of Compound 2, Rat: ND Not detected.; trace: Trace: observed by HPLC/MS measurements only.; + Minor as assessed by HPLC/UV measurements; ++ moderate as assessed by HPLC/UV measurements; +++ major as assessed by HPLC/UV measurements.; * m/z 593 and m/z 505 co-eluted in rabbit hepatocytes.; ** m/z 591 c and m/z 593 were merged in human hepatocytes and Hepatopack.; *** m/z 607 and m/z 751 b were merged in rabbit hepatocytes; settings: for metabolite of Compound 2 observed in rat hepatocyte incubations: 10 μM Compound 2, 7.5×10^5 cells/mL, 1 and 4 hrs composite; for Relative abundance of metabolite of Compound 2, Rat: rat cryopreserved hepatocytes, HPLC/UV/MS
Procedure: as §1, §2, §3, §4, §5

human hepatocytes = assay: In vitro metabolism of Compound 2 in human cryopreserved hepatocytes; assay type: in vitro ADME; set-up: key to Relative abundance of metabolite of Compound 2, Human: ND Not detected.; trace: Trace: observed by HPLC/MS measurements only.; + Minor as assessed by HPLC/UV measurements; ++ moderate as assessed by HPLC/UV measurements; +++ major as assessed by HPLC/UV measurements.; * m/z 593 and m/z 505 co-eluted in rabbit hepatocytes.; ** m/z 591 c and m/z 593 were merged in human hepatocytes and Hepatopack.; *** m/z 607 and m/z 751 b were merged in rabbit hepatocytes; settings: for metabolite of Compound 2 observed in human hepatocyte incubations: 10 μM Compound 2, 7.5×10^5 cells/mL, 1 and 4 hrs composite; for Relative abundance of metabolite of Compound 2, Human: human cryopreserved hepatocytes, HPLC/UV/MS
Procedure: as §1, §2, §3, §4, §5

mouse hepatocytes = assay: In vitro metabolism of Compound 2 in mouse cryopreserved hepatocytes; assay type: in vitro ADME; set-up: key to Relative abundance of metabolite of Compound 2, Mouse: ND Not detected.; trace: Trace: observed by HPLC/MS measurements only.; + Minor as assessed by HPLC/UV measurements; ++ moderate as assessed by HPLC/UV measurements; +++ major as assessed by HPLC/UV measurements.; * m/z 593 and m/z 505 co-eluted in rabbit hepatocytes.; ** m/z 591 c and m/z 593 were merged in human hepatocytes and Hepatopack.; *** m/z 607 and m/z 751 b were merged in rabbit hepatocytes; settings: for metabolite of Compound 2 observed in mouse hepatocyte incubations: 10 μM Compound 2, 7.5×10^5 cells/mL, 1 and 4 hrs composite; for Relative abundance of metabolite of Compound 2, Mouse: mouse cryopreserved hepatocytes, HPLC/UV/MS
Procedure: as §1, §2, §3, §4, §5

human GLP-1R [2] = molecular target: T1, human GLP-1R (Homo sapiens, UniProt P43220, L260F); assay: CHO GLP-1R Clone C6 - Assay 2 (HTRF cAMP agonist assay, low receptor density); assay type: cell-based; settings: CHO GLP-1R Clone C6 (low receptor density), arithmetic mean, relative to 1 μM GLP-1
T1 construct: expressed in transfected cells
Procedure: GLP-1R-mediated agonist activity was determined with a cell-based functional assay utilizing an HTRF (Homogeneous Time-Resolved Fluorescence) cAMP detection kit (cAMP HI Range Assay Kit; Cis Bio cat #62AM6PEJ) that measures cAMP levels in the cell. The method is a competitive immunoassay between native cAMP produced by the cells and exogenous cAMP labeled with the dye d2. The tracer binding is visualized by a mAb anti-cAMP labeled with Cryptate. The specific signal (i.e. energy transfer) is inversely proportional to the concentration of cAMP in either a standard or an experimental sample.
The human GLP-1R coding sequence (NCBI Reference Sequence NP_002053.3, including naturally-occurring variant Leu260Phe) was subcloned into pcDNA5-FRT-TO and a clonal CHO cell line stably expressing a low receptor density was isolated using the Flp-In™ T-Rex™ System, as described by the manufacturer (ThermoFisher).
Cells were removed from cryopreservation, re-suspended in 40 mL of Dulbecco's Phosphate Buffered Saline (DPBS—Lonza Cat #17-512Q) and centrifuged at 800×g for 5 minutes at 22° C. The DPBS was aspirated, and the cell pellet was re-suspended in 10 mL of complete growth medium (DMEM:F12 1:1 Mixture with HEPES, L-Gln, 500 mL (DMEM/F12 Lonza Cat #12-719F), 10% heat inactivated fetal bovine serum (Gibco Cat #16140-071), 5 mL of 100× Pen-Strep (Gibco Cat #15140-122), 5 mL of 100× L-Glutamine (Gibco Cat #25030-081), 700 μg/mL Hygromycin (Invitrogen Cat #10687010) and 15 μg/mL Blasticidin (Gibco Cat #R21001). A 1 mL sample of the cell suspension in growth media was counted on a Becton Dickinson ViCell to determine cell viability and cell count per mL. The remaining cell suspension was then adjusted with growth media to deliver 1600 viable cells per well using a Matrix Combi Multidrop reagent dispenser, and the cells were dispensed into a white 384 well tissue culture treated assay plate (Corning 3570). The assay plate was then incubated for 48 hours at 37° C. in a humidified environment (95% O2, 5% CO2)
Varying concentrations of each compound to be tested (in DMSO) were diluted in assay buffer [HBSS with Calcium/Magnesium (Lonza/BioWhittaker cat #10-527F)/0.1% BSA (Sigma Aldrich cat #A7409-1L)/20 mM HEPES (Lonza/BioWhittaker cat #17-737E)] containing 100 μM 3-isobutyl-1-methylxanthin (IBMX; Sigma cat #15879). The final DMSO concentration in the compound/assay buffer mixture is 1%.
After 48 hours, the growth media was removed from the assay plate wells, and the cells were treated with 20 μL of the serially diluted compound in assay buffer for 30 minutes at 37° C. in a humidified environment (95% O2, 5% CO2). Following the 30 minute incubation, 10 μL of labeled d2 cAMP and 10 μL of anti-cAMP antibody (both diluted 1:20 in cell lysis buffer; as described in the manufacturer's assay protocol) were added to each well of the assay plate. The plates were then incubated at room temperature and after 60 minutes, changes in the HTRF signal were read with an Envision 2104 multi-label plate reader using excitation of 330 nm and emissions of 615 and 665 nm. Raw data were converted to nM cAMP by interpolation from a cAMP standard curve (as described in the manufacturer's assay protocol) and the percent effect was determined relative to a saturating concentration of the full agonist GLP-1 (1 μM) included on each plate. EC50 determinations were made from agonist dose response curves analyzed with a curve fitting program using a 4-parameter logistic dose response equation.

[3] = Circulating metabolites of Compound 2 in rat plasma following a 1.0 mg/kg IV bolus dose; assay type: in vivo; settings: 1.0 mg/kg IV bolus dose of Compound 2, pooled 0.033-24 hrs
Procedure: (§6) Plasma and bile samples were obtained from a bile duct cannulated rat experiment (Study PK-0111) in which a 1.0 mg/kg IV bolus dose was administered to fed male rats (N=3). No control plasma was available from this experiment.
Clin Pharmacol Ther 1981; 29(3):408-13]. The entire volume of each replicate Hamilton pool was combined to create a single pooled sample (576 μL) for analysis.
(§7) Pooled plasma and bile samples were extracted with ACN containing 0.1% formic acid, and after centrifugation at 1900×g, the supernatant was transferred to clean tubes and evaporated under N2 in a Turbovap set at 37° C. Residues were reconstituted in mobile phase (5:95 v:v ACN:0.1% aqueous formic acid) prior to analysis by HPLC/UV/MS^n.
as §3, §4, §5

[4] = Metabolites of Compound 2 in rat bile following a 1.0 mg/kg IV bolus dose; assay type: in vivo; settings: 1.0 mg/kg IV bolus dose of Compound 2, bile duct cannulated rats, pooled 0-24 hrs
Procedure: as §6
Bile samples (0-3, 3-7, and 7-24 hrs) from individual animals were pooled in proportion to the amount collect in each interval. Then 0.5 mL of each individual pool was combined to prepare a composite sample for analysis.
as §7, §3, §4, §5

human GLP-1R [5] = molecular target: human GLP-1R (Homo sapiens, UniProt P43220, G168S); assay: CHO GLP-1R Clone H6 - Assay 1 (HTRF cAMP agonist assay); settings: read-out: Assay 1 Emax (%)
human GLP-1R (Homo sapiens, UniProt P43220, G168S), sequence (P43220 24-463 G168S): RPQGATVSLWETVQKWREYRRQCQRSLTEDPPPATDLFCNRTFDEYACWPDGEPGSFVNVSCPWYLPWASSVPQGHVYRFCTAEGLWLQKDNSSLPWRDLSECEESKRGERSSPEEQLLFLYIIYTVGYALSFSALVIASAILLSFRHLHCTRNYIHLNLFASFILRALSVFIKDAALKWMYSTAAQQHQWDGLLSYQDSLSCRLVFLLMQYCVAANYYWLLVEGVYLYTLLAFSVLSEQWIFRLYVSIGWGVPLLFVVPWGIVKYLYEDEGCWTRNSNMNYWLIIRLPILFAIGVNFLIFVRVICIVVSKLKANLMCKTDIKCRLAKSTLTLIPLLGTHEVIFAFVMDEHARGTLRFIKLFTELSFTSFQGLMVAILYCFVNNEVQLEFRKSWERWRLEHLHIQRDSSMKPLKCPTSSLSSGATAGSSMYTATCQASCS
Procedure: GLP-1R-mediated agonist activity was determined with a cell-based functional assay utilizing an HTRF (Homogeneous Time-Resolved Fluorescence) cAMP detection kit (cAMP HI Range Assay Kit; CisBio cat #62AM6PEJ) that measures cAMP levels in the cell. The method is a competitive immunoassay between native cAMP produced by the cells and exogenous cAMP labeled with the dye d2. The tracer binding is visualized by a mAb anti-cAMP labeled with Cryptate. The specific signal (i.e. energy transfer) is inversely proportional to the concentration of cAMP in either standard or experimental sample.
The human GLP-1R coding sequence (NCBI Reference Sequence NP_002053.3, including naturally-occurring variant Gly168Ser) was subcloned into pcDNA3 (Invitrogen) and a cell line stably expressing the receptor was isolated (designated Clone H6).
Cells were removed from cryopreservation, re-suspended in 40 mL of Dulbecco's Phosphate Buffered Saline (DPBS—Lonza Cat #17-512Q) and centrifuged at 800×g for 5 minutes at 22° C. The cell pellet was then re-suspended in 10 mL of growth medium [DMEM/F12 1:1 Mixture with HEPES, L-Gln, 500 mL (DMEM/F12 Lonza Cat #12-719F), 10% heat inactivated fetal bovine serum (Gibco Cat #16140-071), 5 mL of 100× Pen-Strep (Gibco Cat #15140-122), 5 mL of 100× L-Glutamine (Gibco Cat #25030-081) and 500 μg/mL Geneticin (G418) (Invitrogen #10131035)]. A 1 mL sample of the cell suspension in growth media was counted on a Becton Dickinson ViCell to determine cell viability and cell count per mL. The remaining cell suspension was then adjusted with growth media to deliver 2000 viable cells per well using a Matrix Combi Multidrop reagent dispenser, and the cells were dispensed into a white 384 well tissue culture treated assay plate (Corning 3570). The assay plate was then incubated for 48 hours at 37° C. in a humidified environment in 5% carbon dioxide.
Varying concentrations of each compound to be tested (in DMSO) were diluted in assay buffer (HBSS with Calcium/Magnesium (Lonza/BioWhittaker cat #10-527F)/0.1% BSA (Sigma Aldrich cat #A7409-1L)/20 mM HEPES (Lonza/BioWhittaker cat #17-737E) containing 100 μM 3-isobutyl-1-methylxanthin (IBMX; Sigma cat #15879). The final DMSO concentration is 1%.
After 48 hours, the growth media was removed from the assay plate wells, and the cells were treated with 20 μL of the serially diluted compound in assay buffer for 30 minutes at 37° C. in a humidified environment in 5% carbon dioxide. Following the 30 minute incubation, 10 μL of labeled d2 cAMP and 10 μL of anti-cAMP antibody (both diluted 1:20 in cell lysis buffer; as described in the manufacturer's assay protocol) were added to each well of the assay plate. The plates were then incubated at room temperature and after 60 minutes, changes in the HTRF signal were read with an Envision 2104 multi-label plate reader using excitation of 330 nm and emissions of 615 and 665 nm. Raw data were converted to nM cAMP by interpolation from a cAMP standard curve (as described in the manufacturer's assay protocol) and the percent effect was determined relative to a saturating concentration of the full agonist GLP-17-36 (1 μM) included on each plate. EC50 determinations were made from agonist dose-response curves analyzed with a curve fitting program using a 4-parameter logistic dose response equation.

T1 sequence (P43220 24-463 L260F): as the sequence (P43220 24-463 G168S) above, with S145G, L237F counted along it

SMILES	metabolite of Compound 2 observed in monkey hepatocyte incubations (monkey hepatocytes)	Relative abundance of metabolite of Compound 2, Monkey (monkey hepatocytes)	Relative abundance of metabolite of Compound 2, Hepatopack [1]	metabolite of Compound 2 observed in rabbit hepatocyte incubations (rabbit hepatocytes)	Relative abundance of metabolite of Compound 2, Rabbit (rabbit hepatocytes)	metabolite of Compound 2 observed in rat hepatocyte incubations (rat hepatocytes)	Relative abundance of metabolite of Compound 2, Rat (rat hepatocytes)	metabolite of Compound 2 observed in human hepatocyte incubations (human hepatocytes)	Relative abundance of metabolite of Compound 2, Human (human hepatocytes)	metabolite of Compound 2 observed in mouse hepatocyte incubations (mouse hepatocytes)	Relative abundance of metabolite of Compound 2, Mouse (mouse hepatocytes)	Emax (human GLP-1R [2]) [%]	detected in rat plasma [3]	detected in rat bile [4]	Emax (human GLP-1R [5]) [%]
C[C@]1(c2ccc(Cl)cn2)Oc2cccc(C3CCN(Cc4nc5ccc(C(=O)O)cc5n4CC(O)CCO)CC3)c2O1 (stereo in doubt) [Metabolite 593]	observed in all hepatocyte incubations	+	**	observed in all hepatocyte incubations	+++	observed in all hepatocyte incubations	trace	observed in all hepatocyte incubations	**	observed in all hepatocyte incubations	+	–	–	–	–
C[C@]1(c2ccc(Cl)cn2)Oc2cccc(C3CCN(Cc4nc5ccc(C(=O)O)cc5n4C[C@@H]4CCO4)CC3)c2O1 [Compound 2, 2-((4-((S)-2-(5-chloropyridin-2-yl)-2-methylbenzo[d][1,3]dioxol-4-yl)piperidin-1-yl)methyl)-1-(((S)-oxetan-2-yl)methyl)-1H-benzo[d]imidazole-6-carboxylic acid]	–	–	–	–	–	–	–	–	–	–	–	96	detected	detected	99
C[C@]1(c2ccc(Cl)cn2)Oc2cccc(-c3cc[n+](Cc4nc5ccc(C(=O)O)cc5n4C[C@@H]4CCO4)cc3)c2O1 [Metabolite 569]	observed in all hepatocyte incubations	trace	+	observed in all hepatocyte incubations	+	observed in all hepatocyte incubations	trace	observed in all hepatocyte incubations	+	observed in all hepatocyte incubations	+	–	–	–	–
